Experimental data as given in PubChem BioAssay (NCI).
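Values below derive from 48-hour exposures of cells grown in 96-well plates, with endpoints linearly interpolated between the two concentrations bracketing the appropriate inhibition level. GI50 is the concentration that inhibits growth by half. TGI: concentration producing complete growth inhibition.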

How the values were obtained:
Assay in all cases: NCI anticancer screen, dose series, 48 h
OVCAR-8 ovarian = test system: OVCAR-8 ovarian
COLO 205 colon = test system: COLO 205 colon
A549 NSCLC = test system: A549 NSCLC
T-47D breast = test system: T-47D breast
SW-620 colon = test system: SW-620 colon
K-562 leukemia = test system: K-562 leukemia
HOP-92 NSCLC = test system: HOP-92 NSCLC
SK-OV-3 ovarian = test system: SK-OV-3 ovarian
UACC-62 melanoma = test system: UACC-62 melanoma
MDA-MB-231 breast = test system: MDA-MB-231 breast
UACC-257 melanoma = test system: UACC-257 melanoma
U251 CNS = test system: U251 CNS
HCT-116 colon = test system: HCT-116 colon
SNB-75 CNS = test system: SNB-75 CNS
OVCAR-5 ovarian = test system: OVCAR-5 ovarian
LOX IMVI melanoma = test system: LOX IMVI melanoma
HOP-62 NSCLC = test system: HOP-62 NSCLC
ACHN renal = test system: ACHN renal
NCI-H460 lung = test system: NCI-H460 lung
IGROV1 ovarian = test system: IGROV1 ovarian
786-0 renal = test system: 786-0 renal
CAKI-1 renal = test system: CAKI-1 renal
HCC-2998 colon = test system: HCC-2998 colon
SK-MEL-2 melanoma = test system: SK-MEL-2 melanoma
OVCAR-3 ovarian = test system: OVCAR-3 ovarian
HS 578T breast = test system: HS 578T breast
HCT-15 colon = test system: HCT-15 colon
SF-268 CNS = test system: SF-268 CNS

Cc1cc(-c2nc3ccc(O)cc3s2)ccc1N
GI50 (OVCAR-8 ovarian): > 100 µM | TGI (OVCAR-8 ovarian): > 100 µM | GI50 (COLO 205 colon): > 100 µM | TGI (COLO 205 colon): > 100 µM | GI50 (A549 NSCLC): 34.5 µM | TGI (A549 NSCLC): > 100 µM | GI50 (T-47D breast): 22.6 µM | TGI (T-47D breast): > 100 µM | GI50 (SW-620 colon): 66.8 µM | TGI (SW-620 colon): > 100 µM | GI50 (K-562 leukemia): 36.4 µM | TGI (K-562 leukemia): > 100 µM | GI50 (HOP-92 NSCLC): > 100 µM | TGI (HOP-92 NSCLC): > 100 µM | GI50 (SK-OV-3 ovarian): 36.9 µM | TGI (SK-OV-3 ovarian): > 100 µM | GI50 (UACC-62 melanoma): 57.7 µM | TGI (UACC-62 melanoma): > 100 µM | GI50 (MDA-MB-231 breast): 44.7 µM | TGI (MDA-MB-231 breast): > 100 µM | GI50 (UACC-257 melanoma): > 100 µM | TGI (UACC-257 melanoma): > 100 µM | GI50 (U251 CNS): 31.3 µM | TGI (U251 CNS): > 100 µM | GI50 (HCT-116 colon): 43.9 µM | TGI (HCT-116 colon): > 100 µM | GI50 (SNB-75 CNS): 15.8 µM | TGI (SNB-75 CNS): 71 µM | GI50 (OVCAR-5 ovarian): 82.6 µM | TGI (OVCAR-5 ovarian): > 100 µM | GI50 (LOX IMVI melanoma): > 100 µM | TGI (LOX IMVI melanoma): > 100 µM | GI50 (HOP-62 NSCLC): 31.1 µM | TGI (HOP-62 NSCLC): > 100 µM | GI50 (ACHN renal): 53.9 µM | TGI (ACHN renal): > 100 µM | GI50 (NCI-H460 lung): 38.9 µM | TGI (NCI-H460 lung): > 100 µM | GI50 (IGROV1 ovarian): 47.5 µM | TGI (IGROV1 ovarian): > 100 µM | GI50 (786-0 renal): 29.2 µM | TGI (786-0 renal): > 100 µM | TGI (CAKI-1 renal): > 100 µM | GI50 (HCC-2998 colon): > 100 µM | TGI (HCC-2998 colon): > 100 µM | GI50 (SK-MEL-2 melanoma): > 100 µM | TGI (SK-MEL-2 melanoma): > 100 µM | GI50 (OVCAR-3 ovarian): 39.3 µM | TGI (OVCAR-3 ovarian): > 100 µM | GI50 (HS 578T breast): 95.5 µM | TGI (HS 578T breast): > 100 µM | GI50 (HCT-15 colon): > 100 µM | TGI (HCT-15 colon): > 100 µM | GI50 (SF-268 CNS): 35.6 µM
